Paper PMC8533211, “Computationally Assisted Lead Optimization of Novel Potent and Selective MAO-B Inhibitors” (Biomedicines, 2021)
Read-outs that look alike come from different tables or passages of the source.

What was measured:
human recombinant MAO-A = target: T1, human recombinant MAO-A (Homo sapiens, UniProt P21397); assay: kynuramine oxidation deamination assay, MAO-A inhibition (IC50); format: biochemical; settings: kynuramine 80 μM, mean ± S.D. of triplicate
T1 construct: purchased BD Biosciences (Bedford, MA, USA)
T1 sequence (P21397 1-527): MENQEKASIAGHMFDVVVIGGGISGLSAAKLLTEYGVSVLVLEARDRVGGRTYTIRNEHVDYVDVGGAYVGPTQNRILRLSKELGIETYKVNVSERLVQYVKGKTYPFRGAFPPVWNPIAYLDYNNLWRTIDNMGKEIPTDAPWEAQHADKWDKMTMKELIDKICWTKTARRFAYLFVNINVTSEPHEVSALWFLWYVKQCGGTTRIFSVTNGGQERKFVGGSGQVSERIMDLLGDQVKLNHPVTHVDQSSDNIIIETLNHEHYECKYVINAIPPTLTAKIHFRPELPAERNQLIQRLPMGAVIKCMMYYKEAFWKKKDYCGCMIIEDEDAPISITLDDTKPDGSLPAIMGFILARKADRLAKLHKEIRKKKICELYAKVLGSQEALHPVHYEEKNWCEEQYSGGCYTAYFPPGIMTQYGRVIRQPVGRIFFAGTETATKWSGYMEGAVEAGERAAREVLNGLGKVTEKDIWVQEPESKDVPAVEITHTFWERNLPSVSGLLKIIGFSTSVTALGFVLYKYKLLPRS
Experimental: (§1) A fixed single concentration of kynuramine substrate and varying concentrations of the test inhibitor were used to determine the IC50 values. The kynuramine concentrations for MAO-A and -B were 80 μM and 50 μM, respectively. These concentrations of kynuramine were twice the apparent KM value for substrate binding. […] Enzymatic reactions were performed in 50 μL of the assay mixture containing 0.1 M potassium phosphate buffer, pH 7.4. […] Reactions were initiated by the addition of 12.50 μL of MAO-A (to 5 μg/mL) or -B (to 10 μg/mL). The plate was incubated for 20 min at 37 °C, and the enzymatic reaction was terminated by the addition of 18.8 μL of 2N NaOH. Formation of the enzyme product, 4-hydroxyquinoline, was measured fluorometrically using a SpectraMax M5 fluorescence plate reader (Molecular Devices, Sunnyvale, CA, USA) with excitation (320 nm) and emission (380 nm) wavelengths and the Soft Max Pro program. The inhibition effects of enzyme activity were calculated as percent of product formation compared to the corresponding control (enzyme–substrate reaction) without inhibitors. Controls included the assays where the enzyme or the substrate was added after terminating the reaction to determine the interference with the fluorescence measurements. The IC50 values for MAO-A and -B inhibition were calculated from the concentration-dependent inhibition curves using XLFit® software.

human recombinant MAO-B = target: T2, human recombinant MAO-B (Homo sapiens, UniProt P27338); assay: kynuramine oxidation deamination assay, MAO-B inhibition (IC50); format: biochemical; parameters: purchased BD Biosciences (Bedford, MA, USA); settings: for Selectivity Index MAO-A/B: ratio of IC50 MAO-A / MAO-B; for IC50: recombinant human MAO-B, kynuramine 50 μM, mean ± S.D. of triplicate
T2 sequence (P27338 1-520): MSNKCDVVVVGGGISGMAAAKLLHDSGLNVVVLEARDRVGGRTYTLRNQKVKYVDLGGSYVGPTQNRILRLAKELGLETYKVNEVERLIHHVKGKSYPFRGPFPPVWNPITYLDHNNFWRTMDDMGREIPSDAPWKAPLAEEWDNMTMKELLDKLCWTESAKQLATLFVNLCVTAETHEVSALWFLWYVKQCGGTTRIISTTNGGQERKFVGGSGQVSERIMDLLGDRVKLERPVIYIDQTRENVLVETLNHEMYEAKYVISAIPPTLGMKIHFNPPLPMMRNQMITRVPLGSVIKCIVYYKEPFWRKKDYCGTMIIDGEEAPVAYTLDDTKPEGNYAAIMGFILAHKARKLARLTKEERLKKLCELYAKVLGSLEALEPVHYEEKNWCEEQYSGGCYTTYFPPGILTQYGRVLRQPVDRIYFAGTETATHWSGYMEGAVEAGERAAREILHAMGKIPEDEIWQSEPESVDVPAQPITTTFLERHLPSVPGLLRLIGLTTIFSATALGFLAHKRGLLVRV
Experimental: as §1, with “The kynuramine concentrations for MAO-A and -B were 80 μM and 50 μM, respectively.” left out

human recombinant MAO B = settings: cited from earlier work
human recombinant MAO A = settings: cited from earlier work

| IC50 (human recombinant MAO-A) | Selectivity Index MAO-A/B (human recombinant MAO-B) | IC50 (human recombinant MAO-B) | SMILES | further results |
| --- | --- | --- | --- | --- |
| > 100 µM | >4.4 | 22.8 ± 2.1 µM | COc1cc(OC)c2c(=O)cc(-c3ccc(OCC4CC4)cc3)oc2c1 [Compound 5b, 2-(4-(Cyclopropylmethoxy)phenyl)-5,7-dimethoxy-4H-chromen-4-one] | – |
| > 100 µM | >37.9 | 2.64 ± 0.088 µM | COc1cc(OC)c2c(=O)cc(-c3ccc(OC(C)C)cc3)oc2c1 [Compound 2b, 2-(4-Isopropoxyphenyl)-5,7-dimethoxy-4H-chromen-4-one] | – |
| > 100 µM | >1 | > 100 µM | C#CCOc1ccc(-c2cc(=O)c3c(OC)cc(OC)cc3o2)cc1 [Compound 4b, 5,7-Dimethoxy-2-(4-(prop-2-yn-1-yloxy)phenyl)-4H-chromen-4-one] | – |
| – | – | – | COc1cc(-c2oc3cc(O)cc(O)c3c(=O)c2O)ccc1O [Isorhamnetin] | Selectivity Index MAO-A/B (human recombinant MAO B): 0.30; IC50 (human recombinant MAO B; human recombinant, kynuramine): 21.2 ± 4.99 µM; IC50 (human recombinant MAO A; human recombinant, kynuramine): 6.42 ± 7.69 µM |
| – | – | – | O=c1c(O)c(-c2ccc(O)c(O)c2)oc2cc(O)cc(O)c12 [Quercetin] | Selectivity Index MAO-A/B (human recombinant MAO B): 0.05; IC50 (human recombinant MAO B; human recombinant, kynuramine): 28.4 ± 5.41 µM; IC50 (human recombinant MAO A): 1.52 ± 0.09 µM |
| – | – | – | COc1cc(O)c2c(=O)cc(-c3ccc(O)c(OC)c3)oc2c1 [Vetulin] | Selectivity Index MAO-A/B (human recombinant MAO B): 42.70; IC50 (human recombinant MAO B; human recombinant, kynuramine): 0.44 ± 0.01 µM; IC50 (human recombinant MAO A; human recombinant, kynuramine): 18.8 ± 0.29 µM |
| 39.1 ± 0.555 µM | 17.9 | 2.19 ± 0.088 µM | COc1cc(O)c2c(=O)cc(-c3ccc(NCC4CC4)cc3)oc2c1 [Compound 8d, 2-(4-((Cyclopropylmethyl)amino)phenyl)-5-hydroxy-7-methoxy-4H-chromen-4-one] | – |
| – | – | – | C#CCN[C@@H]1CCc2ccccc21 [Rasagiline] | nature of MAO-B inhibition (reversible/irreversible) (human recombinant MAO B): irreversible MAO-B inhibitors; selectivity towards MAO-B against MAO-A (human recombinant MAO B): 103 fold |
| 1.3 ± 0.09 µM | 1.4 | 0.9 ± 0.035 µM | COc1cc(O)c(C(=O)/C=C/c2ccc(OCC3CC3)cc2)c(OC)c1 [Compound 5a, (E)-3-(4-(Cyclopropylmethoxy)phenyl)-1-(2-hydroxy-4,6-dimethoxyphenyl)prop-2-en-1-one] | – |
| 85.5 ± 1.59 µM | 55.0 | 1.55 ± 0.137 µM | CCCNc1ccc(-c2cc(=O)c3c(O)cc(OC)cc3o2)cc1 [Compound 6d, 5-Hydroxy-7-methoxy-2-(4-(propylamino)phenyl)-4H-chromen-4-one] | – |
| > 100 µM | >4.5 | 22.1 ± 2.48 µM | CCCNc1ccc(-c2cc(=O)c3c(OC)cc(OC)cc3o2)cc1 [Compound 6c, 5,7-Dimethoxy-2-(4-(propylamino)phenyl)-4H-chromen-4-one] | – |
| 87.8 ± 5.45 µM | 3.1 | 28.4 ± 2.64 µM | COc1cc(OC)c2c(=O)cc(-c3ccc(Br)cc3)oc2c1 [Compound 6b, 2-(4-Bromophenyl)-5,7-dimethoxy-4H-chromen-4-one] | – |
| – | – | – | O=c1cc(-c2ccc(O)cc2)oc2cc(O)cc(O)c12 [Apigenin] | IC50 (human recombinant MAO B; human recombinant, kynuramine): 1.12 ± 0.27 µM; IC50 (human recombinant MAO A; human recombinant, kynuramine): 0.64 ± 0.11 µM |
| 40.5 ± 2.37 µM | 97.1 | 0.417 ± 0.012 µM | COc1cc(O)c2c(=O)cc(-c3ccc(NC(C)C)cc3)oc2c1 [Compound 7d, 5-Hydroxy-2-(4-(Isopropylamino)phenyl)-7-methoxy-4H-chromen-4-one] | – |
| 0.515 ± 0.024 µM | 1.3 | 0.4 ± 0.024 µM | CCCOc1ccc(/C=C/C(=O)c2c(O)cc(OC)cc2OC)cc1 [Compound 1a, (E)-1-(2-Hydroxy-4,6-dimethoxyphenyl)-3-(4-propoxyphenyl)prop-2-en-1-one] | – |
| 9.42 ± 1.78 µM | 1.1 | 8.33 ± 0.787 µM | C#CCOc1ccc(/C=C/C(=O)c2c(O)cc(OC)cc2OC)cc1 [Compound 4a, (E)-1-(2-Hydroxy-4,6-dimethoxyphenyl)-3-(4-(prop-2-yn-1-yloxy)phenyl)prop-2-en-1-one] | – |
| 39.1 ± 5.14 µM | 3.1 | 12.7 ± 0.29 µM | COc1cc(OC)c2c(=O)cc(-c3ccc(NCC4CC4)cc3)oc2c1 [Compound 8c, 2-(4-((Cyclopropylmethyl)amino)phenyl)-5,7-dimethoxy-4H-chromen-4-one] | – |
| > 100 µM | >58.8 | 1.7 ± 0.076 µM | CCCOc1ccc(-c2cc(=O)c3c(OC)cc(OC)cc3o2)cc1 [Compound 1b, 5,7-Dimethoxy-2-(4-propoxyphenyl)-4H-chromen-4-one] | – |
| – | – | – | COc1ccc(-c2oc3cc(O)cc(O)c3c(=O)c2O)cc1 [4′-O-Methyl kaempferol] | IC50 (human recombinant MAO B; human recombinant, kynuramine): > 100 µM; IC50 (human recombinant MAO A; human recombinant, kynuramine): 1.35 ± 0.198 µM |
| 37.5 ± 0.476 µM | 4.0 | 9.45 ± 0.113 µM | COc1cc(OC)c2c(=O)cc(-c3ccc(NC(C)C)cc3)oc2c1 [Compound 7c, 2-(4-(Isopropylamino)phenyl)-5,7-dimethoxy-4H-chromen-4-one] | – |
| – | – | – | COc1ccc(-c2cc(=O)c3c(O)cc(O)cc3o2)cc1O [Diosmetin] | Selectivity Index MAO-A/B (human recombinant MAO B): 3.63; IC50 (human recombinant MAO B; human recombinant, kynuramine): 1.58 ± 0.88 µM; IC50 (human recombinant MAO A; human recombinant, kynuramine): 5.74 ± 0.57 µM |
| – | – | – | COc1cc(O)c2c(=O)cc(-c3ccc(O)cc3)oc2c1 [Genkwanin] | Selectivity Index MAO-A/B (human recombinant MAO B): 0.40; IC50 (human recombinant MAO B; human recombinant, kynuramine): 0.35 ± 0.03 µM; IC50 (human recombinant MAO A; human recombinant, kynuramine): 0.14 ± 0.01 µM |
| 0.117 ± 0.05 µM | 2.4 | 0.049 ± 0.0035 µM | COc1cc(O)c(C(=O)/C=C/c2ccc(OC(C)C)cc2)c(OC)c1 [Compound 2a, (E)-1-(2-Hydroxy-4,6-dimethoxyphenyl)-3-(4-isopropoxyphenyl)prop-2-en-1-one] | – |

| SMILES | IC50 (human recombinant MAO-A) | Selectivity Index MAO-A/B (human recombinant MAO-B) | IC50 (human recombinant MAO-B) | further results |
| --- | --- | --- | --- | --- |
| COc1cc(O)c(C(=O)/C=C/c2ccc(Br)cc2)c(OC)c1 [Compound 6a, (E)-3-(4-Bromophenyl)-1-(2-hydroxy-4,6-dimethoxyphenyl)prop-2-en-1-one] | 12.3 ± 0.249 µM | – | > 100 µM | – |
| COc1ccc2c(c1)[nH]c1c(C)nccc12 [Harmine, reference compound] | – | – | 39 ± 1.41 µM | – |
| COc1cc(O)c(C(=O)/C=C/c2ccc(OCC(C)C)cc2)c(OC)c1 [Compound 3a, (E)-1-(2-Hydroxy-4,6-dimethoxyphenyl)-3-(4-isobutoxyphenyl)prop-2-en-1-one] | 0.42 ± 0.002 µM | 1.9 | 0.22 ± 0.0211 µM | – |
| COc1cc(OC)c2c(=O)cc(-c3ccc(OCC(C)C)cc3)oc2c1 [Compound 3b, 2-(4-Isobutoxyphenyl)-5,7-dimethoxy-4H-chromen-4-one] | > 100 µM | >13.8 | 7.23 ± 2.14 µM | – |
